The experiment deals with T1, HMG-CoA reductase (Homo sapiens, UniProt P04035).
T1 construct: endogenous in cells; host or cells: HepG2 (Korea Cell Line Bank)
T1 sequence (P04035 1-888): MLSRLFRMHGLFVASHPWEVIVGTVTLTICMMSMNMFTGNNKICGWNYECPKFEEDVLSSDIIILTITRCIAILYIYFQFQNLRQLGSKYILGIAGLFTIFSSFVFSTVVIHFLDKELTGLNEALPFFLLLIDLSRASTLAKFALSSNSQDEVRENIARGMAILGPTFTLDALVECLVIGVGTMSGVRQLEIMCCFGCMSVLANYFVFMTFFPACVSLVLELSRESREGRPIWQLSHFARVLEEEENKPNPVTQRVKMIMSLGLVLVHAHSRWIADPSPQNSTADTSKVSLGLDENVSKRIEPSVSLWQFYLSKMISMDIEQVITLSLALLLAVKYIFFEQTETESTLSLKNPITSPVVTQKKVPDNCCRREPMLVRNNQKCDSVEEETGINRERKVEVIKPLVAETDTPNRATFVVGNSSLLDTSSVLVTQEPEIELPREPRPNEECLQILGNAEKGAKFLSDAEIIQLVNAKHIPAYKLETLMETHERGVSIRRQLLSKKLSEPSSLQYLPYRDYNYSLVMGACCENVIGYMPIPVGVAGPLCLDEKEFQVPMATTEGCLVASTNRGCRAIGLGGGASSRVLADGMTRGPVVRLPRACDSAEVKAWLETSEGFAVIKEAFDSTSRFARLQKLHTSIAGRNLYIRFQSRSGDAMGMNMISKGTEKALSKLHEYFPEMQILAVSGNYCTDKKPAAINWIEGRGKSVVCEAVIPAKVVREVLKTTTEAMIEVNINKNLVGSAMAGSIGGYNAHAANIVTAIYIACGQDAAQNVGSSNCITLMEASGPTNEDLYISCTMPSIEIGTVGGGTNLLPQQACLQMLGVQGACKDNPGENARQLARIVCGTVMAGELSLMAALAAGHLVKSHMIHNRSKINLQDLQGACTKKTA
The experiment is described as follows: HMG-CoA reductase (HMGCR) degradation in HepG2 cells by western blotting. Type of experiment: cell-based. As to conditions: treated for 18 hours, ratio of HMG-CoA reductase to GAPDH, read-out: DC50. Put shortly:
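Western blot read-out: HMGCR protein probed (1:500, 16 hours at 4° C) alongside GAPDH loading control on 15 μg BCA-normalised RIPA lysates. Lysates came from HepG2 cells (P105–P110) exposed for 18 hours to a 10-point, three-fold series starting at 3 μM.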
For the compound `CN[C@@H](C)C(=O)N[C@H](C(=O)N1CCC[C@@H]1c1nc(C(=O)c2cccc(OCCOCCOCCNC(=O)O[C@H]3C[C@@H](C)C=C4C=C[C@H](C)[C@H](CC[C@@H]5C[C@@H](O)CC(=O)O5)[C@H]43)c2)cs1)C1CCCCC1` [Compound 34, (1S,3R,7S,8S,8aR)-8-(2-((2R,4R)-4-hydroxy-6-oxotetrahydro-2H-pyran-2-yl)ethyl)-3,7-dimethyl-1,2,3,7,8,8a-hexahydronaphthalen-1-yl (2-(2-(2-(3-(2-((R)-1-((S)-2-cyclohexyl-2-((S)-2-(methylamino)propanamido)acetyl)pyrrolidin-2-yl)thiazole-4-carbonyl)phenoxy)ethoxy)ethoxy)ethyl)carbamate], the DC50 was more than 500 nM.

On to `CN[C@@H](C)C(=O)N[C@H](C(=O)N1CCC[C@@H]1c1nc(C(=O)c2cccc(OCCOCCOCCNC(=O)O[C@H]3C[C@@H](C)C=C4C=C[C@H](C)[C@H](CC[C@@H]5C[C@@H](O[Si](C)(C)C(C)(C)C)CC(=O)O5)[C@H]43)c2)cs1)C1CCCCC1` [Compound 35, (1S,3R,7S,8S,8aR)-8-(2-((2R,4R)-4-((tert-butyldimethylsilyl)oxy)-6-oxotetrahydro-2H-pyran-2-yl)ethyl)-3,7-dimethyl-1,2,3,7,8,8a-hexahydronaphthalen-1-yl (2-(2-(2-(3-(2-((R)-1-((S)-2-cyclohexyl-2-((S)-2-(methylamino)propanamido)acetyl)pyrrolidin-2-yl)thiazole-4-carbonyl)phenoxy)ethoxy)ethoxy)ethyl)carbamate], for which the DC50 is more than 500 nM.

As for `CN[C@@H](C)C(=O)N[C@H](C(=O)N1CCC[C@H]1c1nc(C(=O)c2cccc(OCCOCCOCCNC(=O)O[C@H]3C[C@@H](C)C=C4C=C[C@H](C)[C@H](CC[C@@H]5C[C@@H](O[Si](C)(C)C(C)(C)C)CC(=O)O5)[C@H]43)c2)cs1)C1CCCCC1` [Compound 36, (1S,3R,7S,8S,8aR)-8-(2-((2R,4R)-4-((tert-butyldimethylsilyl)oxy)-6-oxotetrahydro-2H-pyran-2-yl)ethyl)-3,7-dimethyl-1,2,3,7,8,8a-hexahydronaphthalen-1-yl (2-(2-(2-(3-(2-((S)-1-((S)-2-cyclohexyl-2-((S)-2-(methylamino)propanamido)acetyl)pyrrolidin-2-yl)thiazole-4-carbonyl)phenoxy)ethoxy)ethoxy)ethyl)carbamate], the DC50 was less than 50 nM.

As to `CN[C@@H](C)C(=O)N[C@H](C(=O)N1CCC[C@H]1c1nc(C(=O)c2cccc(OCCOCCOCCOCCNC(=O)O[C@H]3C[C@@H](C)C=C4C=C[C@H](C)[C@H](CC[C@@H]5C[C@@H](O[Si](C)(C)C(C)(C)C)CC(=O)O5)[C@H]43)c2)cs1)C1CCCCC1` [Compound 37, (1S,3R,7S,8S,8aR)-8-(2-((2R,4R)-4-((tert-butyldimethylsilyl)oxy)-6-oxotetrahydro-2H-pyran-2-yl)ethyl)-3,7-dimethyl-1,2,3,7,8,8a-hexahydronaphthalen-1-yl (2-(2-(2-(2-(3-(2-((S)-1-((S)-2-cyclohexyl-2-((S)-2-(methylamino)propanamido)acetyl)pyrrolidin-2-yl)thiazole-4-carbonyl)phenoxy)ethoxy)ethoxy)ethoxy)ethyl)carbamate], the DC50 was less than 50 nM. Regarding `CN[C@@H](C)C(=O)N[C@H](C(=O)N1CCC[C@H]1c1nc(C(=O)c2cccc(OCCOCCOCCOCCOCCNC(=O)O[C@H]3C[C@@H](C)C=C4C=C[C@H](C)[C@H](CC[C@@H]5C[C@@H](O[Si](C)(C)C(C)(C)C)CC(=O)O5)[C@H]43)c2)cs1)C1CCCCC1` [Compound 38, (1S,3R,7S,8S,8aR)-8-(2-((2R,4R)-4-((tert-butyldimethylsilyl)oxy)-6-oxotetrahydro-2H-pyran-2-yl)ethyl)-3,7-dimethyl-1,2,3,7,8,8a-hexahydronaphthalen-1-yl (14-(3-(2-((S)-1-((S)-2-cyclohexyl-2-((S)-2-(methylamino)propanamido)acetyl)pyrrolidin-2-yl)thiazole-4-carbonyl)phenoxy)-3,6,9,12-tetraoxatetradecyl)carbamate], the DC50 was less than 50 nM. Next, `C[C@H]1C=C2C=C[C@H](C)[C@H](CC[C@@H]3C[C@@H](O)CC(=O)O3)[C@H]2[C@@H](OC(=O)NCCOCCOCCOCCNc2ccccc2)C1` [Compound 39, (1S,3R,7S,8S,8aR)-8-(2-((2R,4R)-4-hydroxy-6-oxotetrahydro-2H-pyran-2-yl)ethyl)-3,7-dimethyl-1,2,3,7,8,8a-hexahydronaphthalen-1-yl (2-(2-(2-(2-(phenylamino)ethoxy)ethoxy)ethoxy)ethyl)carbamate]: more than 500 nM.

Turning to `C[C@H]1C=C2C=C[C@H](C)[C@H](CC[C@@H]3C[C@@H](O)CC(=O)O3)[C@H]2[C@@H](OC(=O)NCCOCCOCCNc2cccc3c2C(=O)N(C2CCC(=O)NC2=O)C3=O)C1` (stereo partly drawn) [Compound 40, (1S,3R,7S,8S,8aR)-8-(2-((2R,4R)-4-hydroxy-6-oxotetrahydro-2H-pyran-2-yl)ethyl)-3,7-dimethyl-1,2,3,7,8,8a-hexahydronaphthalen-1-yl (2-(2-(2-((2-(2,6-dioxopiperidin-3-yl)-1,3-dioxoisoindolin-4-yl)amino)ethoxy)ethoxy)ethyl)carbamate], the DC50 is less than 50 nM. As for `C[C@H]1C=C2C=C[C@H](C)[C@H](CC[C@@H]3C[C@@H](O)CC(=O)O3)[C@H]2[C@@H](OC(=O)NCCOCCOCCOCCNc2cccc3c2C(=O)N(C2CCC(=O)NC2=O)C3=O)C1` (stereo partly drawn) [Compound 41, (1S,3R,7S,8S,8aR)-8-(2-((2R,4R)-4-hydroxy-6-oxotetrahydro-2H-pyran-2-yl)ethyl)-3,7-dimethyl-1,2,3,7,8,8a-hexahydronaphthalen-1-yl (2-(2-(2-(2-((2-(2,6-dioxopiperidin-3-yl)-1,3-dioxoisoindolin-4-yl)amino)ethoxy)ethoxy)ethoxy)ethyl)carbamate], the figure is less than 50 nM. `C[C@H]1C=C2C=C[C@H](C)[C@H](CC[C@@H]3C[C@@H](O)CC(=O)O3)[C@H]2[C@@H](OC(=O)NCCOCCOCCOCCOCCNc2cccc3c2C(=O)N(C2CCC(=O)NC2=O)C3=O)C1` (stereo partly drawn) [Compound 42, (1S,3R,7S,8S,8aR)-8-(2-((2R,4R)-4-hydroxy-6-oxotetrahydro-2H-pyran-2-yl)ethyl)-3,7-dimethyl-1,2,3,7,8,8a-hexahydronaphthalen-1-yl (14-((2-(2,6-dioxopiperidin-3-yl)-1,3-dioxoisoindolin-4-yl)amino)-3,6,9,12-tetraoxatetradecyl)carbamate]: the DC50 is less than 50 nM. As for `C[C@H]1C=C2C=C[C@H](C)[C@H](CC[C@@H]3C[C@@H](O)CC(=O)O3)[C@H]2[C@@H](OC(=O)NCCOCCOCCOCCOCCOCCNc2cccc3c2C(=O)N(C2CCC(=O)NC2=O)C3=O)C1` (stereo partly drawn) [Compound 43, (1S,3R,7S,8S,8aR)-8-(2-((2R,4R)-4-hydroxy-6-oxotetrahydro-2H-pyran-2-yl)ethyl)-3,7-dimethyl-1,2,3,7,8,8a-hexahydronaphthalen-1-yl (17-((2-(2,6-dioxopiperidin-3-yl)-1,3-dioxoisoindolin-4-yl)amino)-3,6,9,12,15-pentaoxaheptadecyl)carbamate], the figure is less than 50 nM; as for `C[C@H]1C=C2C=C[C@H](C)[C@H](CC[C@@H]3C[C@@H](O)CC(=O)O3)[C@H]2[C@@H](OC(=O)NCCOCCOCCOCCOCCOCCOCCNc2cccc3c2C(=O)N(C2CCC(=O)NC2=O)C3=O)C1` (stereo partly drawn) [Compound 44, (1S,3R,7S,8S,8aR)-8-(2-((2R,4R)-4-hydroxy-6-oxotetrahydro-2H-pyran-2-yl)ethyl)-3,7-dimethyl-1,2,3,7,8,8a-hexahydronaphthalen-1-yl (20-((2-(2,6-dioxopiperidin-3-yl)-1,3-dioxoisoindolin-4-yl)amino)-3,6,9,12,15,18-hexaoxaicosyl)carbamate], less than 50 nM; as for `C[C@H]1C=C2C=C[C@H](C)[C@H](CC[C@@H]3C[C@@H](O[Si](C)(C)C(C)(C)C)CC(=O)O3)[C@H]2[C@@H](OC(=O)NCCOCCOCCOCCNc2ccccc2)C1` [Compound 45, (1S,3R,7S,8S,8aR)-8-(2-((2R,4R)-4-((tert-butyldimethylsilyl)oxy)-6-oxotetrahydro-2H-pyran-2-yl)ethyl)-3,7-dimethyl-1,2,3,7,8,8a-hexahydronaphthalen-1-yl (2-(2-(2-(2-(phenylamino)ethoxy)ethoxy)ethoxy)ethyl)carbamate], more than 500 nM.

What is called DC50 is the midpoint of the concentration-degradation curve.

Source of the values: US12479840B2, “HMG-CoA reductase degradation inducing compound” (Uppthera, priority 2020, dated 2025).
